Drawing on ChEMBL document CHEMBL1138928, “Toward orthopoxvirus countermeasures: a novel heteromorphic nucleoside of unusual structure” (J Med Chem, 2006), this text covers EC50 for two compounds.

The structures appear in SMILES notation.

In this experiment the test system is Vaccinia virus. The experiment can be described thus: Antiviral activity against vaccinia virus in HFF cells by cytopathogenic effect assay. In kind it is functional, organism-based. The conditions noted are these: Orthopoxvirus vaccinia.

Broadly, the EC50 is the concentration at which the effect is half-maximal. A low value points to an effect from little substance. `Nc1ccn(C[C@@H](CO)OCP(=O)(O)O)c(=O)n1` [CIDOFOVIR] had an EC50 of 3200 nM. Next, `N#CC1=C(N)OC2=C(C(=O)CCC2)C1c1cn([C@H]2C[C@@H](O)[C@@H](CO)O2)c(=O)[nH]c1=O` (some centres not stated): 600 nM.
